Test systems include A549; CCRF-CEM; EKVX; HCC 2998; HCT-116; HCT-15; HL-60; HT-29; NCI-H226; NCI-H460; OVCAR-5; OVCAR-8; RPMI-8226; SF-295; SK-OV-3; SW-620.
Common to all, as to experiment: growth of human tumour cells (NCI), 48 h

The structures appear in SMILES notation.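 Protocol summary: plate cells (96-well), add compound at 5 concentrations, incubate 48 h, interpolate endpoints linearly. GI50 is the concentration that inhibits growth by half.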 Calls of active or inactive are those of the source. Cut-off read from the data, not from the text of the source: active = GI50 up to about 1.1 µM and inactive = higher.

Consider `COc1ccc(N2C(=O)C3c4[nH]c5ccccc5c4C4CCCCC4C3C2=O)cc1` (stereo not drawn), for which the GI50 was 18.3 µM (inactive) with A549; 11.9 µM (inactive) with CCRF-CEM; 17.3 µM (inactive) with EKVX; 18.3 µM (inactive) in the assay on HCC 2998; 7.11 µM (inactive) in the assay with HCT-116; more than 100 µM in the assay on HCT-15. The GI50 in the assay with HL-60 is 16.2 µM (inactive); in the assay with HT-29, 23.4 µM (inactive); in the assay with NCI-H226 it was 27.4 µM (inactive); with NCI-H460, 19.5 µM (inactive); with OVCAR-5, > 100 µM (inactive); in the assay on OVCAR-8, 11 µM (inactive). The GI50 in the assay on RPMI-8226 is 32.3 µM (inactive); with SF-295 it was 11.3 µM (inactive); in the assay with SK-OV-3 it was 19.7 µM (inactive); in the assay with SW-620, 29.1 µM (inactive).

Regarding `O=C1CC23CCCCCCCCCCC2(C1)CC(=O)C3` (stereo not drawn), the GI50 is 30 µM (inactive) with A549; 18.9 µM (inactive) in the assay with CCRF-CEM; 30.1 µM (inactive) in the assay on EKVX; 32.7 µM (inactive) in the assay on HCC 2998; 27.3 µM with HCT-15; 17.4 µM (inactive) with HL-60. Also, the GI50 in the assay on HT-29 was 18.1 µM (inactive); in the assay on NCI-H226, 26.5 µM (inactive); in the assay with NCI-H460 it was 34.7 µM (inactive); in the assay with OVCAR-5 it was 23.2 µM (inactive); with OVCAR-8 it was 31.2 µM (inactive); with RPMI-8226, 19.4 µM (inactive). Further, the GI50 in the assay on SF-295 is 35.3 µM (inactive); in the assay with SK-OV-3 it was 16.8 µM (inactive); in the assay with SW-620, 40.6 µM (inactive).

As to `O=S(=O)(SCc1ccccc1)C(c1ccccc1)c1ccccc1`, the GI50 with A549 is 32 µM (inactive); with CCRF-CEM it was 4.21 µM (inactive); with EKVX, 60.3 µM (inactive); in the assay on HCC 2998, > 100 µM (inactive); in the assay with HCT-116 it was 33.4 µM (inactive); in the assay with HCT-15 it was 30.5 µM. In addition, the GI50 in the assay with HL-60 is 5.52 µM (inactive); in the assay with HT-29 it was 28.6 µM (inactive); in the assay with NCI-H226, 22.5 µM (inactive); with NCI-H460 it was 37 µM (inactive); in the assay with OVCAR-5, > 100 µM (inactive); with OVCAR-8 it was 19.8 µM (inactive). Also, the GI50 was 25 µM (inactive) in the assay on RPMI-8226, 44.1 µM (inactive) with SF-295, > 100 µM (inactive) in the assay with SK-OV-3 and 7.4 µM (inactive) in the assay on SW-620.

For the molecule `COc1nc2c(nc(N)n2C2OC(CO)C(O)C(O)C2O)c(=O)[nH]1` (stereo not drawn), the GI50 in the assay on A549, in the assay with CCRF-CEM, in the assay with EKVX, in the assay on HCC 2998, in the assay with HCT-116 and in the assay with HL-60 was > 100 µM (inactive) in each case. Further, the GI50 with HT-29, with NCI-H226, with NCI-H460, in the assay on OVCAR-8, in the assay with SF-295 and with SK-OV-3 was > 100 µM (inactive) in each case. In addition, in the assay with SW-620, the GI50 was > 100 µM (inactive).

For `CCOC(=O)NC1C2CC(=O)C(O2)C1OCc1ccccc1` (stereo not drawn), the GI50 was > 100 µM (inactive) with A549; > 100 µM (inactive) in the assay with CCRF-CEM; > 100 µM (inactive) in the assay on HCC 2998; more than 100 µM in the assay on HCT-15; > 100 µM (inactive) in the assay with HL-60; > 100 µM (inactive) in the assay with HT-29. In addition, the GI50 with NCI-H226, in the assay on NCI-H460, with OVCAR-5, in the assay on RPMI-8226, in the assay on SF-295 and in the assay with SK-OV-3 was > 100 µM (inactive) in each case. Moreover, in the assay on SW-620, the GI50 is > 100 µM (inactive).

On to `CCCCCCCCCCCCOC(=S)NC`, for which the GI50 in the assay on CCRF-CEM was 33.4 µM (inactive); with EKVX, 20.4 µM (inactive); in the assay on HCC 2998, 17.5 µM (inactive); in the assay with HCT-116, 16.9 µM (inactive); in the assay with HCT-15 it was 17.8 µM; with HL-60 it was 27.6 µM (inactive). Besides, the GI50 with HT-29 was 18.6 µM (inactive); in the assay on NCI-H226 it was 4.25 µM (inactive); with NCI-H460, 18.5 µM (inactive); in the assay on OVCAR-5, 12.6 µM (inactive); in the assay on OVCAR-8, 18.6 µM (inactive); in the assay on RPMI-8226, 16.9 µM (inactive). Moreover, the GI50 in the assay on SF-295 is 25.9 µM (inactive); in the assay with SK-OV-3, 27 µM (inactive); with SW-620, 18.3 µM (inactive).

In the case of `COc1ccc(OC)c2c(C(=O)O)c(Cc3ccccc3)ccc12`, the GI50 in the assay with A549 was > 100 µM (inactive); in the assay with CCRF-CEM, > 10 µM (inactive); in the assay with EKVX, > 100 µM (inactive); in the assay on HCC 2998 it was > 100 µM (inactive); in the assay on HCT-116 it was > 100 µM (inactive); with HCT-15 it was more than 100 µM. Moreover, the GI50 in the assay with HL-60, in the assay on HT-29, with NCI-H226, in the assay on NCI-H460, in the assay on OVCAR-5 and in the assay with OVCAR-8 was > 100 µM (inactive) each time. Moreover, the GI50 with SF-295, in the assay on SK-OV-3 and with SW-620 was > 100 µM (inactive) throughout.

Take `O=c1cc(-c2ccccc2)[nH]c2c(Cl)cccc12`: the GI50 is 7.98 µM (inactive) in the assay with A549; 16.1 µM (inactive) in the assay with CCRF-CEM; 49.5 µM (inactive) in the assay on EKVX; 14.8 µM (inactive) in the assay with HCC 2998; 7.24 µM (inactive) with HCT-116; 5.09 µM in the assay with HCT-15. In addition, the GI50 was 9.12 µM (inactive) in the assay on HL-60; 20.8 µM (inactive) in the assay with HT-29; 9.55 µM (inactive) with NCI-H226; 8.2 µM (inactive) with NCI-H460; 16.6 µM (inactive) in the assay on OVCAR-8; 17 µM (inactive) in the assay on RPMI-8226. Further, the GI50 was 20.1 µM (inactive) in the assay with SF-295 and 3.86 µM (inactive) in the assay with SW-620.

In the case of `N#CC(C(=O)CCC(=O)Nc1ccc(Cl)c(Cl)c1)c1ccccc1` (stereo not drawn), the GI50 in the assay with A549 is > 100 µM (inactive); in the assay with EKVX, > 100 µM (inactive); in the assay on HCC 2998 it was > 100 µM (inactive); in the assay with HCT-116, > 100 µM (inactive); in the assay on HCT-15, more than 100 µM; in the assay with HL-60, > 100 µM (inactive). Also, the GI50 in the assay with HT-29, in the assay with NCI-H226, in the assay on OVCAR-5, in the assay on OVCAR-8, in the assay with RPMI-8226 and in the assay on SF-295 was > 100 µM (inactive) throughout. Also, in the assay with SW-620, the GI50 was > 100 µM (inactive).

Consider `CC(=O)NNc1nc(C)c(C(=O)/C=C/c2ccc(NC(C)=O)cc2)s1`, for which the GI50 in the assay on A549 is > 100 µM (inactive); in the assay on CCRF-CEM, > 100 µM (inactive); in the assay with EKVX, 71.3 µM (inactive); in the assay on HCC 2998, > 100 µM (inactive); in the assay with HCT-15, more than 100 µM; with HL-60 it was > 100 µM (inactive). Further, the GI50 in the assay on HT-29, with NCI-H460, in the assay on OVCAR-5, in the assay on OVCAR-8, in the assay with RPMI-8226 and in the assay with SF-295 was > 100 µM (inactive) in each case. Moreover, the GI50 in the assay on SK-OV-3 and in the assay on SW-620 was > 100 µM (inactive) each time.

In the case of `CC1(C)OC2COC3(CNO)OC(C)(C)OC3C2O1` (stereo not drawn), the GI50 was > 100 µM (inactive) with A549; > 100 µM (inactive) in the assay on CCRF-CEM; > 100 µM (inactive) in the assay with EKVX; > 100 µM (inactive) in the assay on HCC 2998; > 100 µM (inactive) in the assay with HCT-116; more than 100 µM in the assay with HCT-15. For the same molecule, the GI50 in the assay with HL-60 is 16.6 µM (inactive); in the assay with HT-29, > 100 µM (inactive); in the assay with NCI-H226, > 100 µM (inactive); in the assay on NCI-H460, > 100 µM (inactive); in the assay with OVCAR-5, > 100 µM (inactive); in the assay with OVCAR-8, > 100 µM (inactive). Further, the GI50 in the assay with SF-295, with SK-OV-3 and with SW-620 was > 100 µM (inactive) throughout.

For the molecule `COC1C=C(Nc2cccc(Cl)c2)C(=O)C1` (stereo not drawn), the GI50 is 18.5 µM (inactive) in the assay on A549; 63.1 µM (inactive) in the assay on CCRF-CEM; 29.4 µM (inactive) in the assay on EKVX; 53.8 µM (inactive) in the assay with HCC 2998; 40.2 µM (inactive) in the assay on HCT-116; 36 µM (inactive) in the assay on HL-60. The GI50 with HT-29 is 65.3 µM (inactive); in the assay with NCI-H226 it was 36.4 µM (inactive); in the assay on NCI-H460 it was 44.4 µM (inactive); in the assay with OVCAR-5, 47.4 µM (inactive); in the assay on OVCAR-8, 96.2 µM (inactive); in the assay on SF-295, 54 µM (inactive). The GI50 with SK-OV-3 is 48.8 µM (inactive); with SW-620, 53.2 µM (inactive).

Consider `CN(C)c1ccc(/C=C2\N=C(c3ccc(N)cc3)OC2=O)cc1`, for which the GI50 in the assay with A549 was > 100 µM (inactive); with CCRF-CEM, > 100 µM (inactive); with EKVX it was > 100 µM (inactive); with HCC 2998 it was > 100 µM (inactive); in the assay on HCT-15, more than 100 µM; in the assay with HL-60, > 100 µM (inactive). The GI50 in the assay with HT-29, with NCI-H226, in the assay with NCI-H460, in the assay on OVCAR-5, in the assay on OVCAR-8 and in the assay with RPMI-8226 was > 100 µM (inactive) throughout. Also, the GI50 in the assay on SF-295, with SK-OV-3 and with SW-620 was > 100 µM (inactive) in each case.

For the molecule `CC1=C/C(=C2/N=C(N(C)C)SS2)C(C)=N1.[O-][Cl+3]([O-])([O-])O`, the GI50 is > 100 µM (inactive) with A549; > 100 µM (inactive) in the assay with EKVX; > 100 µM (inactive) with HCC 2998; > 100 µM (inactive) with HCT-116; more than 100 µM in the assay on HCT-15; > 100 µM (inactive) with HL-60. The GI50 in the assay on HT-29, in the assay on NCI-H226, in the assay with NCI-H460, in the assay with OVCAR-5, with OVCAR-8 and in the assay on RPMI-8226 was > 100 µM (inactive) in each case. For the same molecule, the GI50 with SF-295, with SK-OV-3 and with SW-620 was > 100 µM (inactive) each time.

Source of the values: ChEMBL document CHEMBL1201862, “PubChem BioAssay data set” (2004).
